Data set [1] can be described thus: 6-month accelerated comparative study on stability. To be noted: for Appearance / Content / Moisture: 25° C. and RH of 60%. The class given is physicochemical.
Data set [2] can be described thus: hygroscopicity and storage stability of the cyclohexylamine salt (statement on existing technology). The class given is physicochemical.

The values that follow come from patent publication US11053259B2, “Crystal of cephalosporin intermediate 7α-methoxy cephalothin and method for preparing same” (QILU ANTIBIOTICS PHARMACEUTICAL CO. LTD., priority 2017, dated 2021).

Where a name gives a salt, the structure may show the parent alone.

Turning to `CO[C@@]1(NC(=O)Cc2cccs2)C(=O)N2C(C(=O)O)=C(COC(C)=O)CS[C@@H]21` [listing 1 of 2 here], the “stability of appearance, hygroscopicity and content (overall result in words)” value in data set [1] (6-month accelerated testing) is “better purity and quality stability”.
As for `CO[C@@]1(NC(=O)Cc2cccs2)C(=O)N2C(C(=O)O)=C(COC(C)=O)CS[C@@H]21` [Crystal of 7α-Methoxy Cephalothin, (6R, 7S)-3-acetyloxymethyl-7-methoxy-8-oxo-7-[2-(2-thienyl)acetamido]-5-thia-1-nitrobicyclo [4.2.0] oct-2-ene-2-carboxylic acid], the Appearance entry in data set [1] (Month 0), in data set [1] (Month 1), in data set [1] (Month 2), in data set [1] (Month 3) and in data set [1] (Month 6) was “Off-white” each time. The Content was found to be 98.2% in data set [1] (Month 0); 98.2% in data set [1] (Month 1); 98.1% in data set [1] (Month 2); 98.1% in data set [1] (Month 3); 97.9% in data set [1] (Month 6). For the same compound, the Moisture in data set [1] (Month 0) is listed as 0.26%; in data set [1] (Month 1), 0.27%; in data set [1] (Month 2), 0.27%; in data set [1] (Month 3) it was 0.29%; in data set [1] (Month 6), 0.28%.
Regarding `CO[C@@]1(NC(=O)Cc2cccs2)C(=O)N2C(C(=O)O)=C(COC(C)=O)CS[C@@H]21` [listing 2 of 2 here], in data set [2], the storage stability result is recorded as “poor storage stability”.
Take `CO[C@@]1(NC(=O)Cc2cccs2)C(=O)N2C(C(=O)O)=C(COC(C)=O)CS[C@@H]21` [Cyclohexylamine Salt of 7α-Methoxy Cephalothin]: the Appearance result is “Off-white” in data set [1] (Month 0); “Light” in data set [1] (Month 1); “Yellow” in data set [1] (Month 2); “Yellow” in data set [1] (Month 3); “Earthy” in data set [1] (Month 6). The Content in data set [1] (Month 0) is on record as 78.4%; in data set [1] (Month 1), 77.5%; in data set [1] (Month 2), 76.3%; in data set [1] (Month 3), 75.1%; in data set [1] (Month 6), 72.4%. Further, the Moisture in data set [1] (Month 0) was 0.13%; in data set [1] (Month 1) it was 0.87%; in data set [1] (Month 2) it was 1.56%; in data set [1] (Month 3) it was 1.84%; in data set [1] (Month 6) it was 2.55%. Besides, the hygroscopicity result in data set [2] is given as “strong hygroscopicity”.
